The assay deals with stress-induced release of cortisol. Description: novelty test, stress-induced release of cortisol. As to conditions: 10 μg/kg IP. In kind it is in vivo, hamster. The method, then:
The simple procedure of placing an adult male hamster into a novel environment for 5 min causes a significant, predictable increase in blood levels of cortisol (Weinberg and Wong 1986). This novelty test was used to assess the effects of CLAV on stress-induced release of cortisol. Two groups of male hamsters were treated IP with either CLAV (10 μg/kg, n=6), or saline vehicle (n=4). A third group (n=4) received no treatment or isolation stress and served as a control for basal levels of cortisol. Sixty min after treatment animals were taken from their home cage and placed into a novel cage for 5 min. Afterwards animals were sacrificed by decapitation and trunk blood collected for radioimmunoassay of cortisol. All animals were tested under reverse light:dark conditions four hrs into the dark cycle. Data were compared with a one-way ANOVA followed by Fisher PLSD post hoc tests.

With `O=C(O)[C@H]1/C(=C/CO)O[C@@H]2CC(=O)N21` [CLAV, clavulanic acid], the “effect on stress release of cortisol (summary)” value is given as “no ostensible effect on the release of cortisol”. In addition, the “blood level of cortisol vs untreated, non-stressed control” value (60 min, novel cage 5 min) was “more than twice the blood level of cortisol”.

(Values after US6610681B1, “Neurotherapeutic clavulanate composition and method” (Revaax Pharmaceuticals, LLC, priority 1999, dated 2003).)
